Target: Rho-associated protein kinase 2 (Homo sapiens, UniProt O75116)
Assay: In Vitro Assay
Description: The effectiveness of compounds of the present invention as ROCK inhibitors can be determined in a 30 μL assay containing 20 mM HEPES, pH 7.5, 20 mM MgCl2, 0.015% Brij-35, 4 mM DTT, 5 μM ATP and 1.5 μM peptide substrate (FITC-AHA-AKRRRLSSLRA-OH) (SEQ ID No. 1). Compounds were dissolved in DMSO so that the final concentration of DMSO was <2%, and the reaction was initiated with Rho kinase variants. After incubation, the reaction was terminated by the addition of EDTA and the phosphorylated and non-phosphorylated peptides separated using a LABCHIP 3000 Reader (Caliper Life Sciences). […] Compounds were tested in dose-response format, and the inhibition of kinase activity was calculated at each concentration of compound. The inhibition data were fit using a curve-fitting program to determine the IC50; i.e., the concentration of compound required to inhibit 50% of kinase activity.

Sequence of Rho-associated protein kinase 2 (O75116 whole entry): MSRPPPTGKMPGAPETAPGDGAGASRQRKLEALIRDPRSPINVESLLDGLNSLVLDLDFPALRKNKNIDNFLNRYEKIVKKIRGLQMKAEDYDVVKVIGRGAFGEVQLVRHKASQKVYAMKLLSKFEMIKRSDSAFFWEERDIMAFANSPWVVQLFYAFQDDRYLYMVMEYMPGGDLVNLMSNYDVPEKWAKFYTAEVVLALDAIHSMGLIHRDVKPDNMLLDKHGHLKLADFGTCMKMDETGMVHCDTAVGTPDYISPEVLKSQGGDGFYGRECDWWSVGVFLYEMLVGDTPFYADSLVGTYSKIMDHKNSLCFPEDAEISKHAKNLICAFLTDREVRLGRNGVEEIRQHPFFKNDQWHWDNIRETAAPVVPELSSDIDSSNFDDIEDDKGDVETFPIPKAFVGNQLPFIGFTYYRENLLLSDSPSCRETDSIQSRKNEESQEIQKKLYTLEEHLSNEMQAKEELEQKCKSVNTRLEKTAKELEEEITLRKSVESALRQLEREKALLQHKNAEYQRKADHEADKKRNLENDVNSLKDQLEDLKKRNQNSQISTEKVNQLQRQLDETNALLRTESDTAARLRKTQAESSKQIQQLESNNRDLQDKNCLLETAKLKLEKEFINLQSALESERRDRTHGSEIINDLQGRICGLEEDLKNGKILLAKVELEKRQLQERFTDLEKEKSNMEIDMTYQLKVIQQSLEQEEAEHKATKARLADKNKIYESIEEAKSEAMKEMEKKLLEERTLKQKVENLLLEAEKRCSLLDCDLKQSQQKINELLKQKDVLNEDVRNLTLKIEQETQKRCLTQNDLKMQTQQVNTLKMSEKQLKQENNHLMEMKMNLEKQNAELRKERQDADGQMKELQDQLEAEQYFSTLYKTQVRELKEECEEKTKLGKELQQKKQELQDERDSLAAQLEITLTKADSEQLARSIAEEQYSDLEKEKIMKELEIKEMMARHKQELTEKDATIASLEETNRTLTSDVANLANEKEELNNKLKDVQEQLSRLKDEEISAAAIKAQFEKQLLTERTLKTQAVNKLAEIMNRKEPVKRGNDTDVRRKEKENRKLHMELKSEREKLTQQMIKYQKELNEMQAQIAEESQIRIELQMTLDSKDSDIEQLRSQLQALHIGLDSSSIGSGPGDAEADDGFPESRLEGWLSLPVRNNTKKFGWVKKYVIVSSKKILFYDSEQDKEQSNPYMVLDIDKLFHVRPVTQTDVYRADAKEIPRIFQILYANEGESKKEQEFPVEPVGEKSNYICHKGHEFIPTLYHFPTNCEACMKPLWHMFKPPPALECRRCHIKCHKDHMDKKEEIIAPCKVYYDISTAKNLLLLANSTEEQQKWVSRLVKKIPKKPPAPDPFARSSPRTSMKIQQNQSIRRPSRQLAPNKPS

IC50: 8 nM
SMILES: COc1ccc2sc(NC(=O)Cc3ccc(Oc4ncccc4C(N)=O)c(Cl)c3)nc2c1 [US11306081, Example 115]
